The test deals with recombinant human SAE enzyme (Homo sapiens (Human), UniProt Q9UBT2). The test can be described thus: SAE HTRF enzyme assay. It counts as biochemical. Particulars: for inhibition at 0.111 µM: read-out: Percent Inhibition. In short, it runs like this:
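This HTRF format monitors Sumo-Flag–Ubc9-GST thioester formation catalysed by 0.11 nM human SAE with 0.5 μM ATP over 105 min at 24° C. Inhibition is expressed at a single concentration or as IC50.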

[1] abbreviates: SAE inhibition at compound concentration 0.111 μM.
The mark [2] stands for this setting: SAE inhibition, class symbols, legend in nM.

Structures are written as SMILES. Like-named read-outs stand apart in the source and are kept apart here.

The record followed here is patent publication US10780090B2, “Heteroaryl compounds useful as inhibitors of SUMO activating enzyme” (Millennium Pharmaceuticals, Inc., priority 2014, dated 2020).

recombinant human SAE enzyme, sequence (Q9UBT2 whole entry): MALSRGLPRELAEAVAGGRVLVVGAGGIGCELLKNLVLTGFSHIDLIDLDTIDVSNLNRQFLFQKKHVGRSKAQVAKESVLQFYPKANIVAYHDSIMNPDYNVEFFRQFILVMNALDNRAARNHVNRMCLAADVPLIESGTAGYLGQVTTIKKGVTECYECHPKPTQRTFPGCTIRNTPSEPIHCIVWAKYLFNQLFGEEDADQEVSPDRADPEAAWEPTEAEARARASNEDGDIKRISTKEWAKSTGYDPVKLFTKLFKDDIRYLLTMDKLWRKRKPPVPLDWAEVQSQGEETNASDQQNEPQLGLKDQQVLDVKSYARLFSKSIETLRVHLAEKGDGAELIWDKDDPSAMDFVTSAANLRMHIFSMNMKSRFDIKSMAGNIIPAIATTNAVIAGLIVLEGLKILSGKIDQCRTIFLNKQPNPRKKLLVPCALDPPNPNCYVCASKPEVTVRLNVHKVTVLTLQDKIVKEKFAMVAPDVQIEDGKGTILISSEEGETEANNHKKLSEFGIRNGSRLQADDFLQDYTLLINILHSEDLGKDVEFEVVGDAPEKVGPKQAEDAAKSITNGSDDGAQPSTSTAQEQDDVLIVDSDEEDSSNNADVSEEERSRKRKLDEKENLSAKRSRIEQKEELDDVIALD
recombinant human SAE enzyme, sequence (Q9UBE0 whole entry partner): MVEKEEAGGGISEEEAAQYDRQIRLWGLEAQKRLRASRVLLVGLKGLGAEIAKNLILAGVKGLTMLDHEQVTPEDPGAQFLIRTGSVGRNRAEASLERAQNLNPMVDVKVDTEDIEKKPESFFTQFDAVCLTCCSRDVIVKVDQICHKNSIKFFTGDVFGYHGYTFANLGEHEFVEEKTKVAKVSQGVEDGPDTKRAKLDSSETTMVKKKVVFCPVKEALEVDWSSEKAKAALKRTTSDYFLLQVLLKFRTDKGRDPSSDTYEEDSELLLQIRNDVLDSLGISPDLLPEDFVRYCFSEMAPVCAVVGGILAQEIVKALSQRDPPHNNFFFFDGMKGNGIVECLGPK

One may read the inhibition as the share of the control response that was lost under treatment. As usually defined, the IC50 is the concentration needed to halve the response being measured. On to `NS(=O)(=O)OC[C@H]1C[C@@H](Nc2ncncc2C(=O)c2cc(CN3CCc4ccc(Cl)cc43)cs2)C[C@@H]1O` [I-83, [(1R,2S,4R)-4-{[5-({4-[(6-chloro-2,3-dihydro-1H-indol-1-yl)methyl]-2-thienyl}carbonyl)pyrimidin-4-yl]amino}-2-hydroxycyclopentyl]methyl sulfamate], for which, for the setting “Concentration 0.111 μM”, the inhibition at 0.111 µM worked out at 98%. The IC50 (class symbols A/B/C) was less than 10 nM.

In the case of `NS(=O)(=O)OC[C@H]1C[C@@H](Nc2ncncc2C(=O)c2cc(S(=O)(=O)c3ccccc3)cs2)C[C@@H]1O` [I-200, {(1R,2S,4R)-2-Hydroxy-4-[(5-[4-(phenylsulfonyl)-2-thienyl]carbonyl}pyrimidin-4-yl)amino]cyclopentyl}methyl sulfamate], the “Percent Inhibition” value (Concentration 0.111 μM) is 62. Moreover, where the note is “class symbols A/B/C”, the concentration for half-maximal inhibition (IC50) was in the range of 10 to 100 nM.

As to `NS(=O)(=O)OCC1CC(Nc2ncncc2C(=O)c2cc(C3OCCc4ccc(Cl)nc43)c(Cl)s2)CC1O` (mixture of isomers) [I-276, [(1R,2S,4R)-4-{[5-({5-chloro-4-[(8S)-2-chloro-5,8-dihydro-6H-pyrano[3,4-b]pyridin-8-yl]-2-thienyl}carbonyl)pyrimidin-4-yl]amino}-2-hydroxycyclopentyl]methyl sulfamate and [(1R,2S,4R)-4-{[5-({5-chloro-4-[(8R)-2-chloro-5,8-dihydro-6H-pyrano[3,4-b]pyridin-8-yl]-2-thienyl}carbonyl)pyrimidin-4-yl]amino}-2-hydroxycyclopentyl]methyl sulfamate], the “Percent Inhibition” value (Concentration 0.111 μM) was 98. For the same molecule, the IC50 (class symbols A/B/C) is less than 10 nM.

With `NS(=O)(=O)OC[C@H]1C[C@@H](Nc2ncncc2C(=O)c2cc([C@H](O)c3cc(Br)ccc3F)cs2)C[C@@H]1O` (single isomer, unassigned) [I-19b, [(1R,2S,4R)-4-{[5-({4-[(R)-(5-bromo-2-fluorophenyl)(hydroxy)methyl]-2-thienyl}carbonyl)pyrimidin-4-yl]amino}-2-hydroxycyclopentyl]methyl sulfamate or [(1R,2S,4R)-4-{[5-({4-[(S)-(5-bromo-2-fluorophenyl)(hydroxy)methyl]-2-thienyl}carbonyl)pyrimidin-4-yl]amino}-2-hydroxycyclopentyl]methyl sulfamate], the “Percent Inhibition” value (Concentration 0.111 μM) worked out at 99. In addition, the IC50 (class symbols A/B/C) was less than 10 nM.

`Cc1sc(C(=O)c2cncnc2N[C@@H]2C[C@H](COS(N)(=O)=O)[C@@H](O)[C@H]2O)nc1Cc1cccc(Cl)c1` [I-352, {(1R,2R,3S,4R)-4-[(5-{[4-(3-chlorobenzyl)-5-methyl-1,3-thiazol-2-yl]carbonyl}pyrimidin-4-yl)amino]-2,3-dihydroxycyclopentyl}methyl sulfamate]: under setting [1], the inhibition at 0.111 µM stood at 100%. The IC50 under setting [2] is less than 10 nM.

`C[C@](O)(c1csc(C(=O)c2cncnc2N[C@@H]2C[C@H](COS(N)(=O)=O)[C@@H](O)[C@H]2O)c1)c1cccc(Br)n1` (single isomer, unassigned) [I-1a, [(1R,2R,3S,4R)-4-{[5-({4-[(1S)-1-(6-bromopyridin-2-yl)-1-hydroxyethyl]-2-thienyl}carbonyl)pyrimidin-4-yl]amino}-2,3-dihydroxycyclopentyl]methyl sulfamate or [(1R,2R,3S,4R)-4-{[5-({4-[(1R)-1-(6-bromopyridin-2-yl)-1-hydroxyethyl]-2-thienyl}carbonyl)pyrimidin-4-yl]amino}-2,3-dihydroxycyclopentyl]methyl sulfamate]: the “Percent Inhibition” value (Concentration 0.111 μM) was found to be 96. For the same molecule, the concentration for half-maximal inhibition (IC50) (class symbols A/B/C) was less than 10 nM.

Consider `NS(=O)(=O)OC[C@H]1C[C@@H](Nc2nc(Cl)ncc2C(=O)c2ccc(-c3ccccc3)o2)[C@H](O)[C@@H]1O` [I-236, [(1R,2R,3S,4R)-4-{[2-chloro-5-(5-phenyl-2-furoyl)pyrimidin-4-yl]amino}-2,3-dihydroxycyclopentyl]methyl sulfamate], for which the inhibition at 0.111 µM (Concentration 0.111 μM) is 19%. For the same molecule, the IC50 (class symbols A/B/C) is 100 to 1000 nM.

As for `Cc1nc2n(c1C)CCO[C@@H]2c1cc(C(=O)c2cncnc2N[C@@H]2C[C@H](COS(N)(=O)=O)[C@@H](O)C2)sc1C` (single isomer, unassigned) [I-356b, [(1R,2S,4R)-4-{[5-({4-[(8R)-2,3-dimethyl-5,6-dihydro-8H-imidazo[2,1-c][1,4]oxazin-8-yl]-5-methyl-2-thienyl}carbonyl)pyrimidin-4-yl]amino}-2-hydroxycyclopentyl]methyl sulfamate or [(1R,2S,4R)-4-{[5-({4-[(8S)-2,3-dimethyl-5,6-dihydro-8H-imidazo[2,1-c][1,4]oxazin-8-yl]-5-methyl-2-thienyl}carbonyl)pyrimidin-4-yl]amino}-2-hydroxycyclopentyl]methyl sulfamate], the “Percent Inhibition” value under setting [1] is given as 99%. Also, the IC50 under setting [2] was less than 10 nM.

`NS(=O)(=O)OC[C@H]1C[C@@H](Nc2ncncc2C(=O)c2cc(CCc3ccccc3)cs2)C[C@@H]1O` [I-108, {(1R,2S,4R)-2-Hydroxy-4-[(5-{[4-(2-phenylethyl)-2-thenyl]carbonyl}pyrimidin-4-yl)amino]cyclopentyl}methyl sulfamate]: the inhibition at 0.111 µM (Concentration 0.111 μM) is 96%.

Regarding `Cc1sc(C(=O)c2cncnc2N[C@@H]2C[C@H](COS(N)(=O)=O)[C@@H](O)C2)nc1C1OCCc2ccc(Cl)cc21` (single isomer, unassigned) [I-300a, [(1R,2S,4R)-4-{[5-({4-[(1R)-7-chloro-3,4-dihydro-1H-isochromen-1-yl]-5-methyl-1,3-thiazol-2-yl}carbonyl)pyrimidin-4-yl]amino}-2-hydroxycyclopentyl]methyl sulfamate or [(1R,2S,4R)-4-{[5-({4-[(1S)-7-chloro-3,4-dihydro-1H-isochromen-1-yl]-5-methyl-1,3-thiazol-2-yl}carbonyl)pyrimidin-4-yl]amino}-2-hydroxycyclopentyl]methyl sulfamate], the “Percent Inhibition” value under setting [1] was found to be 26%. Under setting [2], the concentration for half-maximal inhibition (IC50) is 100 to 1000 nM.

Take `NS(=O)(=O)OC[C@H]1C[C@@H](Nc2ncncc2C(=O)c2cc([C@@H]3OCCc4ccc(F)cc43)c(Cl)s2)C[C@@H]1O` (single isomer, unassigned) [I-294a, [(1R,2S,4R)-4-{[5-({5-chloro-4-[(1R)-7-fluoro-3,4-dihydro-1H-isochromen-1-yl]-2-thienyl}carbonyl)pyrimidin-4-yl]amino}-2-hydroxycyclopentyl]methyl sulfamate or [(1R,2S,4R)-4-{[5-({5-chloro-4-[(1S)-7-fluoro-3,4-dihydro-1H-isochromen-1-yl]-2-thienyl}carbonyl)pyrimidin-4-yl]amino}-2-hydroxycyclopentyl]methyl sulfamate]: the “Percent Inhibition” value under setting [1] is listed as 84%. Further, under setting [2], the IC50 is 10 to 100 nM.

In the case of `Cc1sc(C(=O)c2cncnc2N[C@@H]2C[C@H](COS(N)(=O)=O)[C@@H](O)C2)cc1[C@@H]1OCOc2ccccc21` (single isomer, unassigned) [I-280a, [(1R,2S,4R)-4-{[5-({4-[(4R)-4H-1,3-benzodioxin-4-yl]-5-methyl-2-thienyl}carbonyl)pyrimidin-4-yl]amino}-2-hydroxycyclopentyl]methyl sulfamate or [(1R,2S,4R)-4-{[5-({4-[(4S)-4H-1,3-benzodioxin-4-yl]-5-methyl-2-thienyl}carbonyl)pyrimidin-4-yl]amino}-2-hydroxycyclopentyl]methyl sulfamate], the “Percent Inhibition” value under setting [1] amounted to 75%. Also, under setting [2], the IC50 lay within 10 to 100 nM.
